From ChEMBL document CHEMBL5104116, “Strategies for targeting the P2Y12 receptor in the central nervous system” (Bioorg Med Chem Lett, 2022)
Blank lines part the entries; values can stand above or below the compound they belong to.

Legend:
P2Y purinoceptor 12 [1] = target: T1, P2Y purinoceptor 12 (Homo sapiens, UniProt Q9H244); experiment: Displacement of [3H]-2MesADP from recombinant human P2Y12 transfected in HEK cell membrane assessed as inhibition constant; assay type: cell membranes
P2Y purinoceptor 12 [2] = target: T1, P2Y purinoceptor 12; experiment: Displacement of [3H]-2MesADP from human P2Y12 in HEK cell membrane assessed as inhibition constant incubated for 1 hr by scintillation counter method; assay type: cell membranes
P2Y purinoceptor 12 [3] = target: T1, P2Y purinoceptor 12; experiment: Inhibition of P2Y12 (unknown origin)
P2Y purinoceptor 12 [4] = target: T1, P2Y purinoceptor 12; experiment: Binding affinity to P2Y12 (unknown origin) assessed as inhibition constant
P2Y purinoceptor 12 [5] = target: T1, P2Y purinoceptor 12; experiment: Displacement of [33P]-2MeS-ADP from recombinant human P2Y12 transfected in HEK cell membrane assessed as inhibition constant incubated for 1 hr by competitive binding assay; assay type: cell membranes
P2Y purinoceptor 12 [6] = target: T1, P2Y purinoceptor 12; experiment: Displacement of [3H]PSB-0413 from P2Y12 in human platelets assessed as dissociation constant; assay type: cell-based, Platelet

T1 sequence (Q9H244 whole entry): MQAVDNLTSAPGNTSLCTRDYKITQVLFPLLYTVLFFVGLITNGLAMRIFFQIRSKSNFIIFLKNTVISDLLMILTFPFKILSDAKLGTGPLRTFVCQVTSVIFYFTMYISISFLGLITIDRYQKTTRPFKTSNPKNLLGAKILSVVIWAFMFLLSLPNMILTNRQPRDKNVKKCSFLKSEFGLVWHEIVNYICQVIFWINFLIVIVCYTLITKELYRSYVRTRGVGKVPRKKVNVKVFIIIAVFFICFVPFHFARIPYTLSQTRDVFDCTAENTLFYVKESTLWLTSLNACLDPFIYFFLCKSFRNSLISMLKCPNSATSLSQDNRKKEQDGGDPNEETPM

Ki (P2Y purinoceptor 12 [2]): 0.3 nM
SMILES: CCCc1cc2c(N3CCn4c(nnc4C(F)(F)F)C3)nc(OCCF)nc2s1

IC50 (P2Y purinoceptor 12 [3]): 1800 nM
SMILES: CC(=O)Oc1cc2c(s1)CCN(C(C(=O)C1CC1)c1ccccc1F)C2 (stereo not drawn)

Ki (P2Y purinoceptor 12 [4]): 3.5 nM
SMILES: CCCCCOC(=O)N1CCN(C(=O)[C@H](CCC(=O)O)NC(=O)c2cc(N3CCC(COC)CC3)cc(-c3ccccc3)n2)CC1

Continued, compound first:

SMILES: CSc1nc(N)c2ncn([C@@H]3O[C@H](COP(=O)(O)OP(=O)(O)O)[C@@H](O)[C@H]3O)c2n1
Ki (P2Y purinoceptor 12 [1]): 32.1 nM

SMILES: NCc1cc2c(N3CCN(C(=O)c4ccc(-c5ccccc5)cc4)CC3)nc(N3CCNC(=O)C3)nc2s1
Ki (P2Y purinoceptor 12 [5]): 9 nM

SMILES: CCCSc1nc(N[C@@H]2C[C@H]2c2ccc(F)c(F)c2)c2nnn([C@@H]3C[C@H](OCCO)[C@@H](O)[C@H]3O)c2n1 [TICAGRELOR]
IC50 (P2Y purinoceptor 12 [3]): 10 nM

SMILES: [3H]C([3H])C([3H])([3H])CSc1nc(N)c2ncn([C@@H]3O[C@H](COP(=O)(O)OP(=O)(O)O)[C@@H](O)[C@H]3O)c2n1
Kd (P2Y purinoceptor 12 [6]): 6.5 nM

SMILES: COC(=O)[C@H](c1ccccc1Cl)N1CCc2sccc2C1 [CLOPIDOGREL]
IC50 (P2Y purinoceptor 12 [3]): 2400 nM
